Data from patent US10105367B2, “Therapeutic thiophene-, furan-, and pyridine-fused azolopyrimidin-5-(6h)-ones” (Dart Neuroscience (Cayman) Ltd., priority 2012, dated 2018).

What follows are compounds tested against human PDE1B (Homo sapiens (Human), UniProt Q01064) (assay: PDE1B inhibitory assay (IMAP TR-FRET)). Conditions: PDE1B pIC50, negative log of half-maximal molar inhibitory concentration; 200 nM FAM-cAMP, Calmodulin, CaCl2.

Compound	IC50 [nM]
Cc1cc2c(s1)n(Cc1ccccc1Cl)c(=O)n1ncnc21 [Example 13]	1000 to 10000
COCOCc1cnc2c(c1)c1ncnn1c(=O)n2Cc1ccc(OC)cc1 [Example 215]	100 to 1000
COc1ccc(Cn2c(=O)n3ncnc3c3cc(CN4CCN(CC5CCOC5)CC4)cnc32)cc1 (stereo not drawn) [Example 251, 6-(4-Methoxybenzyl)-9-((4-((tetrahydrofuran-3-yl)methyl)piperazin-1-yl)methyl)pyrido[3,2-e][1,2,4]triazolo[1,5-c]pyrimidin-5(6H)-one]	1000 to 10000
Cc1cc(Cn2c(=O)n3ncnc3c3cc(CN4C[C@@H](C)O[C@@H](C)C4)cnc32)ccc1F [Example 274]	100 to 1000
COc1ccc(Cn2c(=O)n3ncnc3c3ncc(CN4CCOCC4)cc32)cc1 [Example 241]	1000 to 10000
O=c1n(Cc2ccc(Cl)c(Cl)c2)c2sc3c(c2c2ncnn12)CCOC3 [Example 91]	100 to 1000
COc1ccc(Cn2c(=O)n3ncnc3c3ccc(CN4C[C@@H](C)O[C@@H](C)C4)nc32)cc1 [Example 257]	100 to 1000
Cc1csc2c1c1ncnn1c(=O)n2Cc1cccc(Cl)c1 [Example 11]	100 to 1000
COc1ccc(Cn2c(=O)n3ncnc3c3cc(CN4CCCOCC4)cnc32)cc1 [Example 233]	100 to 1000
COc1ccc(Cn2c(=O)n3ncnc3c3c4c(sc32)CN(C(=O)C2CCN(C)C2)CC4)cc1 (stereo not drawn) [Example 163]	100 to 1000
COc1ccc(Cn2c(=O)n3ncnc3c3cc(CN4C[C@@H](C)O[C@@H](C)C4)cnc32)c(F)c1F [Example 292]	100 to 1000

Same assay, conditions: negative log of half-maximal molar inhibitory concentration; 200 nM FAM-cAMP, Calmodulin, CaCl2

Compound	PDE1B pIC50
COc1ccc(Cn2c(=O)n3ncnc3c3c(C)c(CN4CCCOCC4)sc32)cc1 [Example 61]	>7
O=c1n(Cc2ccc(Cl)cc2F)c2sc3c(c2c2ncnn12)CCN(Cc1ncccn1)C3 [Example 132]	>7
COc1ccc(Cn2c(=O)n3ncnc3c3c4c(sc32)CN(CC2CCCCO2)CC4)cc1 (stereo not drawn) [Example 117]	>7
COc1ccc(Cn2c(=O)n3ncnc3c3cc(CN4CCOC(C)C4)cnc32)cc1 (stereo not drawn) [Example 229]	>7
COc1ccc(Cn2c(=O)n3ncnc3c3c4c(sc32)CN(Cc2ncccn2)CC4)c(F)c1 [Example 137]	>7
COc1ccc(Cn2c(=O)n3ncnc3c3c4c(sc32)CN(Cc2nccn2C)CCC4)cc1 [Example 144]	>7
COc1ccc(Cn2c(=O)n3ncnc3c3cc(CN4CCOCC4)sc32)cc1 [Example 31]	>7
COc1ccc(Cn2c(=O)n3ncnc3c3c4c(sc32)CN(CC2CCOC2)CCC4)cc1 (stereo not drawn) [Example 143]	>7
C[C@@H]1CN(Cc2cnc3c(c2)c2ncnn2c(=O)n3Cc2ccc(C#N)cc2)C[C@H](C)O1 [Example 279]	<5
CCN1CCN(Cc2sc3c(c2C)c2ncnn2c(=O)n3Cc2ccc(OC)cc2)CC1=O [Example 66]	>7
